Data set [1] in a line: Serum cytokine analysis (Luminex) after systemic administration. The class given is in vivo, BALB/c mice. Conditions: i.p. 185 nmol/injection; sera 2, 4, 6, 24 hours; 1V270 vs 1V136. On the procedure: FIG. 36. […] BALB/c mice (n=5) were i.p. administered IV270 (200 μg=185 nmol/injection) or […] (58 μg=185 nmol/injection) and sera were collected 2, 4, 6, and 24 hours following the administration. The levels of TNFα, IL-12, and IP-IO were measured by Luminex assay. *P<0.05, **P<0.01 by two way ANOVA using a Bonferroni post hoc test comparing treatment groups.
The sera were collected from mice receiving […] of 1V136, 1V270 or vehicle 2, 4, 6, and 24 hours after i.p. administration (15). Cytokine levels in sera were determined by Luminex bead assays (MILLIPLEX™ MAP kit, Millip ore, Billerica, Mass.).

The conditions of data set [2]: cited from earlier work.
The subject of data set [3] is 4T1 cells. Description: Spontaneous lung metastasis model, orthotopic 4T1 breast cancer. The class given is in vivo, BALB/c mice. On the procedure: FIGS. 22A-22C. Systemic administration of 1V270 inhibits lung metastasis in the 4T1 murine syngeneic breast cancer model in a CD8^+ T cell dependent manner. (A) Protocol of spontaneous metastasis model. 4T1 cells (5×10^5) were inoculated in both 4th mammary pads of Balb/c mice (n=13/group) 1V270 (20, 80, 04 200 μg/injection) was administered on days 7, 10, 14, 17, 21 and 24. (B) The numbers of lung nodules were counted by staining with India ink after harvesting lungs on day 27. (C) The mice (n=6-15/group) were orthotopically implanted with 4T1 cells and i.p. treated with 1V270 (20 μg/injection) as shown in FIG. 1A. CD8^+ cells were depleted by administration of anti-CD8 or isotype mAbs on days 5, 8, 11, 16, 19, and 23. The numbers of lung nodules were counted on day 27. Each dot indicates an individual mouse and horizontal and vertical bars indicate means±SEM. Data shown are pooled from 2 independent experiments. *P<0.05, **P<0.01 by Kruskal-Wallis test with Dunn's post hoc test comparing treatment groups against vehicle group. n.s; statistically not significant.
FIGS. 28A-28C. […] Tumor growth was measured with a caliper and calculated using the formula: volume (mm^3)=(width)^2×length/2. […]
In the spontaneous metastasis model, othotopically implanted tumor cells spontaneously form lung metastases within three weeks after implantation. […] Tumor length and width were recorded, and tumor volumes were calculated using the formula: volume (mm^3)=(width)^2×length/2. […] On day 21, mice were euthanized and tumor nodules in lungs were counted as described above. […] Tumor length and width were recorded, and tumor volumes were calculated similar with
4T1 cells (5×10^5) were inoculated into the 4th mammary pads on day 0, and 1V270 (20, 80, or 200 μg/injection) was injected intraperitoneally (i.p.) twice a week for three weeks, starting on day 7 (FIG. 22A). Both the primary tumor volumes and the numbers of lung metastases were evaluated on day 27. […]

The subject of data set [4] is SCC7. Description: SCC7 tumor model, 1V270 with systemic anti-PD-1 agent. The class given is in vivo, C3H mice. Conditions: day 21, flow cytometry. The protocol: FIGS. 2A-2F. […] C3H mice (n=5-8/group) were implanted with SCC7 and carcinoma cells 1A. Tumors and spleens were harvested on day 21 and T cells in TILs or spleens were analyzed by flow cytometry. (A and B) Tumor infiltrating CD8^+ T cells were gated on CD45^+CD3^+CD8^+ populations. Number of CD8^+ T cells (A) and IFNγ^+CD8^+ cells (B) per tumor volume (mm^3) were calculated and plotted. (C) Representative immunohistochemistry images of the tumors (day 21) stained for CD8 (red) and DAPI (blue). Scale bar: 20 μm. (D) Number of IFNγ^+CD8^+ T cells in spleens. Bars indicate mean±SEM. Each dot represents an individual animal and bars indicate mean±SEM in A, B and D. P*<0.05, **P<0.01 (Kruskal-Wallis test with Dunn's post hoc test), n=5-8/group. (E) Tumor volumes at the injected sites were plotted against the log of the number of IFNγ^+CD8^+ T cells in the tumor microenvironment. […] (F) The tumor volumes (day 21, injected side) were plotted against the log of the numbers of IFNγ^+CD8^+ T cells in the spleen.
FIGS. 3A-3E. […] (A-D) SCC7-bearing mice (n=4/group) were treated as described in FIG. 2. Tumors and spleens were harvested on day 21 and CD8^+ T cells were isolated using MACSMicroBead. RNA was isolated and next-generation sequencing was performed. (A) Representative data of TCR repertoire clonality of CD8^+ T cells. […]
For orientation: In flow cytometry, cells or beads pass a laser one at a time.

SMILES strings stand for the structures.

`CCCCCCCCC=CCCCCCCCC(=O)OCC(COP(=O)(O)OCCNC(=O)c1ccc(Cn2c(=O)[nH]c3c(N)nc(OCCOC)nc32)cc1)OC(=O)CCCCCCCC=CCCCCCCCC` (stereo not drawn) [1V270]: the “serum cytokine induction (TNFα, IL-12, IP-10)” value in data set [1] is reported as “significantly lower levels of cytokine induction”. Also, the “systemic cytokine release after intranasal administration” value in data set [2] is “without inducing systemic cytokine release”. Moreover, the “tumor growth at the primary sites of implantation” value in data set [3] (1V270 20, 80 or 200 μg/injection i.p. from day 7) was “did not retard tumor growth at the primary sites of implantation”. Moreover, the “number of lung metastases” value in data set [3] (1V270 20, 80 or 200 μg/injection i.p. twice a week for three weeks from day 7, evaluated day 27) is reported as “decreased the number of lung metastases”. In addition, the “numbers of lung nodules after CD8+ cell depletion” value in data set [3] (anti-CD8 mAb depletion, 1V270 20 μg/injection i.p.) is “increased significantly”. Besides, in data set [4], the “CD8+ population in TILs” value was “increased CD8^+ population in TILs”.

(Values after patent US20200087625A1, “METHODS FOR ISOLATING, EXPANDING AND ADMINISTERING CANCER SPECIFIC CD8+ T CELLS” (priority 2017, published 2020).)
